Laboratory results as given in patent US20100216751A1 (priority 2007, published 2010).
Where “and” joins values, the source holds several entries; their conditions need not be identical. Identical values can stand only once.

Experiments:
[1] = Solubility of bevirimat and bevirimat dimeglumine in single vehicles; conditions: in 100% water, 100% saline, 100% dextrose, 100% PEG 400, and 25% Poloxamer 188
[2] = target: human serum albumin (Homo sapiens, UniProt P02768); assay: Protein binding to human serum albumin; format: in vitro ADME
human serum albumin, sequence (P02768 25-609): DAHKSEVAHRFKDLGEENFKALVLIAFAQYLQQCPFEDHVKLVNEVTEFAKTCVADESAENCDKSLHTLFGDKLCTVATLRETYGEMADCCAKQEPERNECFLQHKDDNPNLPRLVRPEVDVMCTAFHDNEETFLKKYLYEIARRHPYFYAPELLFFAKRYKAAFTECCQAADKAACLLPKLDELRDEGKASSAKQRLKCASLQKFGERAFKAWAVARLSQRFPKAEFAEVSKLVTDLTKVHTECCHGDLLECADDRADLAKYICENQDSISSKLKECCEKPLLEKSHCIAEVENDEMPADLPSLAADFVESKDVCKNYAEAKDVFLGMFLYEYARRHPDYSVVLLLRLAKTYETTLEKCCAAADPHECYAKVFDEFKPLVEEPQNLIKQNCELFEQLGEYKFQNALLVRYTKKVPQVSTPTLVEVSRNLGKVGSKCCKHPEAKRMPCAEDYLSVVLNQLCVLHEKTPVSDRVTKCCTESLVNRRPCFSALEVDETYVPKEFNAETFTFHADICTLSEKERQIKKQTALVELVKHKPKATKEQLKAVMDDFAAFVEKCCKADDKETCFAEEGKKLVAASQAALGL

[3] = Pharmacokinetic evaluation of bevirimat HPβCD formulation, intravenous, male Cynomolgus monkeys
Method: Six male Cynomolgus monkeys having an initial body weight of about 3.5 to about 4.5 kg are allowed 7 days to acclimate to their individual housing units. Monkeys are supplied with water and a commercial diet ad libitum prior to the study initiation. Food is withheld from the monkeys for a minimum of twelve hours before the study and during the study until four hours postdose when food is returned. Water is supplied ad libitum.
Test formulations are administered to the monkeys at time 0 on appropriate days. Test formulations will be dosed orally via oral gavage or intravenously.
Samples are drawn at the frequencies indicated below. Each blood sample (0.5 mL) is collected from the monkey's saphenous vein via a butterfly catheter and placed into a chilled polypropylene tube containing sodium heparin as the anticoagulant. Blood samples are centrifuged at a temperature of 4° C. at a speed of 3,000 rpm for 15 minutes. All samples are maintained chilled throughout processing. Plasma is collected after centrifugation, pipetted into a 2-mL polypropylene microtube, and frozen on dry-ice pending analytical evaluation.

[4] = 2.5 mg FAE/mL in 10% HPβCD+3% Mannitol in water, 10 mg FAE/monkey intravenous injection, monkeys 115,116,120,AVG
[5] = male, cynomolgus monkey, plasma, iv, 10 mg

C=C(C)[C@@H]1CC[C@]2(C(=O)O)CC[C@]3(C)[C@H](CC[C@@H]4[C@@]5(C)CC[C@H](OC(=O)CC(C)(C)C(=O)O)C(C)(C)[C@@H]5CC[C@]43C)[C@@H]12 [Bevirimat, 3-O-(3′,3′-dimethylsuccinyl)betulinic acid]
solubility (in words) [1]: poorly soluble | fraction unbound [2]: ≤ 0.01 | AUCall [3, 4]: 81.549 µg·h/mL and 84.743 µg·h/mL | C0 [3, 4]: 54.673 µg/mL and 39.4 µg/mL | CL [3, 4]: 0.023 L/h/kg and 0.032 L/h/kg and 0.025 L/h/kg | Dnzed AUCall [3, 4]: 46879 ng·h/mL/mg/kg and 41590 ng·h/mL/mg/kg and 31505 ng·h/mL/mg/kg and 39991 ng·h/mL/mg/kg | t1/2 [3, 4]: 24.7 h and 15.5 h and 18.3 h | Plasma Concentration ([3]; 0.033 hr, 2.5 mg FAE/mL in 10% HPβCD+3% Mannitol in water, 10 mg FAE/monkey intravenous injection, monkeys 115,116,120,AVG): 39.4 µg/mL | Plasma Concentration ([3]; 0.25 hr, 2.5 mg FAE/mL in 10% HPβCD+3% Mannitol in water, 10 mg FAE/monkey intravenous injection, monkeys 115,116,120,AVG): 41.6 µg/mL and 23.1 µg/mL and 32.333 µg/mL | Plasma Concentration ([3]; 0.50 hr, 2.5 mg FAE/mL in 10% HPβCD+3% Mannitol in water, 10 mg FAE/monkey intravenous injection, monkeys 115,116,120,AVG): 19.8 µg/mL and 14.8 µg/mL and 19.967 µg/mL | Plasma Concentration ([3]; 1.0 hr, 2.5 mg FAE/mL in 10% HPβCD+3% Mannitol in water, 10 mg FAE/monkey intravenous injection, monkeys 115,116,120,AVG): 20.2 µg/mL and 11.7 µg/mL and 18.233 µg/mL | Plasma Concentration ([3]; 12 hr, 2.5 mg FAE/mL in 10% HPβCD+3% Mannitol in water, 10 mg FAE/monkey intravenous injection, monkeys 115,116,120,AVG): 0.384 µg/mL and 0.404 µg/mL and 0.517 µg/mL | Plasma Concentration ([3]; 24 hr, 2.5 mg FAE/mL in 10% HPβCD+3% Mannitol in water, 10 mg FAE/monkey intravenous injection, monkeys 115,116,120,AVG): 0.367 µg/mL and 0.245 µg/mL and 0.32 µg/mL | Plasma Concentration ([3]; 48 hr, 2.5 mg FAE/mL in 10% HPβCD+3% Mannitol in water, 10 mg FAE/monkey intravenous injection, monkeys 115,116,120,AVG): 0.148 µg/mL and 0.081 µg/mL and 0.121 µg/mL | Plasma Concentration ([3]; 72 hr, 2.5 mg FAE/mL in 10% HPβCD+3% Mannitol in water, 10 mg FAE/monkey intravenous injection, monkeys 115,116,120,AVG, BLOQ=below 50 ng/mL): BLOQ | concentration at 0.033 hr ([3]; male, cynomolgus monkey, in vivo, iv, 10 mg FAE/monkey, Plasma concentration, 0.033 hr, 2.5 mg FAE/mL in 10% HPβCD+3% Mannitol in water, 10 mg FAE/monkey intravenous injection, monkeys 115,116,120,AVG): 50.6 µg/mL | concentration at 0.25 hr ([3]; male, cynomolgus monkey, in vivo, iv, 10 mg FAE/monkey, Plasma concentration, 0.25 hr, 2.5 mg FAE/mL in 10% HPβCD+3% Mannitol in water, 10 mg FAE/monkey intravenous injection, monkeys 115,116,120,AVG): 32.3 µg/mL | concentration at 0.5 hr ([3]; male, cynomolgus monkey, in vivo, iv, 10 mg FAE/monkey, Plasma concentration, 0.50 hr, 2.5 mg FAE/mL in 10% HPβCD+3% Mannitol in water, 10 mg FAE/monkey intravenous injection, monkeys 115,116,120,AVG): 25.3 µg/mL | concentration at 1 hr ([3]; male, cynomolgus monkey, in vivo, iv, 10 mg FAE/monkey, Plasma concentration, 1.0 hr, 2.5 mg FAE/mL in 10% HPβCD+3% Mannitol in water, 10 mg FAE/monkey intravenous injection, monkeys 115,116,120,AVG): 22.8 µg/mL | concentration at 12 hr ([3]; male, cynomolgus monkey, in vivo, iv, 10 mg FAE/monkey, Plasma concentration, 12 hr, 2.5 mg FAE/mL in 10% HPβCD+3% Mannitol in water, 10 mg FAE/monkey intravenous injection, monkeys 115,116,120,AVG): 0.762 µg/mL | concentration at 24 hr ([3]; male, cynomolgus monkey, in vivo, iv, 10 mg FAE/monkey, Plasma concentration, 24 hr, 2.5 mg FAE/mL in 10% HPβCD+3% Mannitol in water, 10 mg FAE/monkey intravenous injection, monkeys 115,116,120,AVG): 0.347 µg/mL | concentration at 48 hr ([3]; male, cynomolgus monkey, in vivo, iv, 10 mg FAE/monkey, Plasma concentration, 48 hr, 2.5 mg FAE/mL in 10% HPβCD+3% Mannitol in water, 10 mg FAE/monkey intravenous injection, monkeys 115,116,120,AVG): 0.134 µg/mL | AUC ([3]; male, cynomolgus monkey, in vivo, iv, 10 mg, AUCall, 2.5 mg FAE/mL in 10% HPβCD+3% Mannitol in water, 10 mg FAE/monkey intravenous injection, monkeys 115,116,120,AVG): 114 µg·h/mL | C0 ([3]; male, cynomolgus monkey, in vivo, iv, 10 mg, C0, 2.5 mg FAE/mL in 10% HPβCD+3% Mannitol in water, 10 mg FAE/monkey intravenous injection, monkeys 115,116,120,AVG): 54.2 µg/mL | half-life ([3]; male, cynomolgus monkey, in vivo, iv, 10 mg, t1/2, 2.5 mg FAE/mL in 10% HPβCD+3% Mannitol in water, 10 mg FAE/monkey intravenous injection, monkeys 115,116,120,AVG): 14.7 h | AUC [3, 5]: 58.3 µg·h/mL | C0 [3, 5]: 49.4 µg/mL | Tmax [3, 5]: 0 h | clearance ([3]; male, cynomolgus monkey, plasma, iv, 10 mg, CL, 2.5 mg FAE/mL in 10% HPβCD+3% Mannitol in water, 10 mg FAE/monkey intravenous injection, monkeys 115,116,120,AVG): 0.02 L/h/kg
